In ChEMBL document CHEMBL1137624, “Synthesis and characterization of pyrrolidine derivatives as potent agonists of the human melanocortin-4 receptor” (Bioorg Med Chem Lett, 2007):

Tests used:
Melanocortin receptor 4 [1] = target: T1, Melanocortin receptor 4 (Homo sapiens, UniProt P32245); assay: Displacement of [125I]NDP-MSH from human MC4 receptor expressed in HEK293 cells; type: cell-based
Melanocortin receptor 4 [2] = target: T1, Melanocortin receptor 4; assay: Intrinsic activity at human MC4 receptor expressed in CHO cells assessed as cAMP accumulation relative to alpha-MSH; type: functional, cell-based
Melanocortin receptor 4 [3] = target: T1, Melanocortin receptor 4; assay: Agonist activity at human MC4 receptor expressed in CHO cells assessed as cAMP accumulation by ELISA; type: functional, cell-based

T1 sequence (P32245 whole entry): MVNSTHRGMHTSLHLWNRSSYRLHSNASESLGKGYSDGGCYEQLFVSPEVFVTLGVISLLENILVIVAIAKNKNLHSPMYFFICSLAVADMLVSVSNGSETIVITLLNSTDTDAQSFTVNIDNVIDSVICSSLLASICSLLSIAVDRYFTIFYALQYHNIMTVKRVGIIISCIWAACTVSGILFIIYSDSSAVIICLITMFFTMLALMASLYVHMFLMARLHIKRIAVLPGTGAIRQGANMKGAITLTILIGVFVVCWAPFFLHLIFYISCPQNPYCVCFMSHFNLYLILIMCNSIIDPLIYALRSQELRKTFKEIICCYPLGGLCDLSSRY

Row | Compound | Ki (Melanocortin receptor 4 [1]) [nM] | Intrinsic activity (Melanocortin receptor 4 [2]) [%] | EC50 (Melanocortin receptor 4 [3]) [nM]
1 | CC(C)[C@H](N)c1cccc(F)c1N1CCN(C(=O)[C@H]2CN(Cc3ccccc3)C[C@@H]2c2ccc(Cl)cc2)CC1 | 98 | 3 | –
2 | Cc1ccc(N2CCN(C(=O)C3CN(C4CCOCC4)CC3c3ccc(Cl)cc3)CC2)c([C@@H](N)C(C)C)c1 (some centres undefined) | 12 | 36 | –
3 | Cc1ccc(N2CCN(C(=O)[C@@H]3CN(C4CCN(C(C)C)CC4)C[C@H]3c3ccc(Cl)cc3)CC2)c([C@@H](N)C(C)C)c1 | 18 | 1 | –
4 | CC(=O)N1C[C@@H](C(=O)N2CCN(c3ccc(C)cc3[C@@H](N)C(C)C)CC2)[C@H](c2ccc(Cl)cc2)C1 | 110 | 35 | –
5 | CC(C)[C@H](N)c1cc(C(F)(F)F)ccc1N1CCN(C(=O)CCc2ccc(Cl)cc2Cl)CC1 | 74 | – | –
6 | CC(C)[C@H](N)c1cc(C(F)(F)F)ccc1N1CCN(C(=O)[C@@H]2CN(Cc3ccccc3)C[C@H]2c2ccc(Cl)cc2Cl)CC1 | 610 | – | –
7 | Cc1ccc(N2CCN(C(=O)[C@@H]3CN(C(=O)CCCc4ccccc4)C[C@H]3c3ccc(Cl)cc3)CC2)c([C@@H](N)C(C)C)c1 | 100 | 0 | –
8 | Cc1ccc(N2CCN(C(=O)[C@@H]3CN(C(=O)OC(C)(C)C)C[C@H]3c3ccc(Cl)cc3)CC2)c([C@@H](N)C(C)C)c1 | 15 | 0 | –
9 | CC(C)[C@H](N)c1cccc(F)c1N1CCN(C(=O)[C@@H]2CN(C(=O)C3CCCCC3)C[C@H]2c2ccc(Cl)cc2)CC1 | 350 | – | –
10 | CC(C)C[C@H](N)c1cc(C(F)(F)F)ccc1N1CCN(C(=O)[C@@H]2CNC[C@H]2c2ccc(Cl)cc2)CC1 | 82 | 34 | –
11 | Cc1ccc(N2CCN(C(=O)[C@@H]3CN(C4CCCCC4)C[C@H]3c3ccc(Cl)cc3)CC2)c([C@@H](N)C(C)C)c1 | 6.6 | 21 | –
12 | CC(C)[C@H](N)c1cccc(F)c1N1CCN(C(=O)[C@@H]2CN(C(=O)C(C)(C)C)C[C@H]2c2ccc(Cl)cc2)CC1 | 540 | – | –
13 | CC(C)C[C@H](N)c1cc(C(F)(F)F)ccc1N1CCN(C(=O)[C@@H]2CN(C(=O)CN)C[C@H]2c2ccc(Cl)cc2)CC1 | 96 | 12 | –
14 | Cc1ccc(N2CCN(C(=O)[C@@H]3CN(Cc4ccccc4)C[C@H]3c3ccc(Cl)cc3)CC2)c([C@@H](N)C(C)C)c1 | 36 | 52 | –
15 | CC(C)C[C@H](N)c1cc(C(F)(F)F)ccc1N1CCN(C(=O)[C@@H]2CN(C(=O)OC(C)(C)C)C[C@H]2c2ccc(Cl)cc2)CC1 | 390 | 32 | –
16 | CC(=O)N1C[C@@H](C(=O)N2CCN(c3ccc(C(F)(F)F)cc3[C@@H](N)CC(C)C)CC2)[C@H](c2ccc(Cl)cc2)C1 | 66 | 72 | 1900
17 | CCC(=O)N1C[C@@H](C(=O)N2CCN(c3ccc(C)cc3[C@@H](N)C(C)C)CC2)[C@H](c2ccc(Cl)cc2)C1 | 59 | 31 | –
18 | CCN1CCC(N2C[C@@H](C(=O)N3CCN(c4ccc(C)cc4[C@@H](N)C(C)C)CC3)[C@H](c3ccc(Cl)cc3)C2)CC1 | 18 | 3 | –
19 | CC(C)[C@H](N)c1cccc(F)c1N1CCN(C(=O)[C@@H]2CN(C)C[C@H]2c2ccc(Cl)cc2)CC1 | 81 | – | –
20 | CC(C)[C@H](N)c1cccc(F)c1N1CCN(C(=O)[C@@H]2CN(CCO)C[C@H]2c2ccc(Cl)cc2)CC1 | 580 | – | –
21 | CC(C)[C@H](N)c1cccc(F)c1N1CCN(C(=O)[C@@H]2CN(CCC(F)(F)F)C[C@H]2c2ccc(Cl)cc2)CC1 | 205 | – | –
22 | CC(C)[C@H](N)c1cccc(F)c1N1CCN(C(=O)[C@@H]2CN(C3CCCC3)C[C@H]2c2ccc(Cl)cc2)CC1 | 26 | 80 | 400

Row | Compound | Ki (Melanocortin receptor 4 [1]) [nM] | Intrinsic activity (Melanocortin receptor 4 [2]) [%] | EC50 (Melanocortin receptor 4 [3]) [nM]
23 | CC(C)C[C@H](N)c1cc(C(F)(F)F)ccc1N1CCN(C(=O)[C@@H]2CN(S(C)(=O)=O)C[C@H]2c2ccc(Cl)cc2)CC1 | 95 | 34 | –
24 | CC(C)[C@H](N)c1cccc(F)c1N1CCN(C(=O)[C@@H]2CN(C(=O)c3ccccc3)C[C@H]2c2ccc(Cl)cc2)CC1 | 160 | – | –
25 | CC(C)C(=O)N1C[C@@H](C(=O)N2CCN(c3c(F)cccc3[C@@H](N)C(C)C)CC2)[C@H](c2ccc(Cl)cc2)C1 | 250 | – | –
26 | Cc1ccc(N2CCN(C(=O)[C@@H]3CN(C(=O)CCc4ccccc4)C[C@H]3c3ccc(Cl)cc3)CC2)c([C@@H](N)C(C)C)c1 | 75 | 0 | –
27 | CC(C)[C@H](N)c1cccc(F)c1N1CCN(C(=O)[C@@H]2CN(C(C)C)C[C@H]2c2ccc(Cl)cc2)CC1 | – | 86 | –
28 | CC(C)[C@H](N)c1cccc(F)c1N1CCN(C(=O)[C@@H]2CN(C3CCC3)C[C@H]2c2ccc(Cl)cc2)CC1 | 32 | – | –
29 | COCC(C)N1C[C@@H](C(=O)N2CCN(c3ccc(C)cc3[C@@H](N)C(C)C)CC2)[C@H](c2ccc(Cl)cc2)C1 (some centres undefined) | 64 | 36 | –
30 | CC(C)[C@H](N)c1cc(C(F)(F)F)ccc1N1CCN(C(=O)[C@@H](Cc2ccc(Cl)cc2Cl)N2CCCC2=O)CC1 | 4.5 | – | –
31 | CC(C)[C@H](N)c1cccc(F)c1N1CCN(C(=O)C2CN(Cc3ccccc3)CC2c2ccc(Cl)cc2)CC1 (some centres undefined) | 94 | 19 | –
32 | CCCC(=O)N1C[C@@H](C(=O)N2CCN(c3c(F)cccc3[C@@H](N)C(C)C)CC2)[C@H](c2ccc(Cl)cc2)C1 | 260 | – | –
33 | CC(C)[C@H](N)c1cccc(F)c1N1CCN(C(=O)[C@@H]2CN(C3CCCCC3)C[C@H]2c2ccc(Cl)cc2)CC1 | 9.3 | 49 | –
34 | CC(C)[C@H](N)c1cccc(F)c1N1CCN(C(=O)[C@@H]2CN(Cc3ccccc3)C[C@H]2c2ccc(Cl)cc2)CC1 | 340 | 22 | –
35 | Cc1ccc(N2CCN(C(=O)[C@@H]3CN(C(=O)C4CCC4)C[C@H]3c3ccc(Cl)cc3)CC2)c([C@@H](N)C(C)C)c1 | 78 | 22 | –
36 | CC(C)C[C@H](N)c1cc(C(F)(F)F)ccc1N1CCN(C(=O)[C@@H]2CN(CCN)C[C@H]2c2ccc(Cl)cc2)CC1 | 180 | 37 | –
37 | CC(=O)N1C[C@@H](C(=O)N2CCN(c3c(F)cccc3[C@@H](N)C(C)C)CC2)[C@H](c2ccc(Cl)cc2)C1 | 220 | – | –
38 | CC(C)C[C@H](N)c1cc(C(F)(F)F)ccc1N1CCN(C(=O)[C@@H]2CN(C(=O)c3ccccc3)C[C@H]2c2ccc(Cl)cc2)CC1 | 30 | 3 | –
39 | CC(C)C[C@H](N)c1cc(C(F)(F)F)ccc1N1CCN(C(=O)[C@@H]2CN(c3ccccc3)C[C@H]2c2ccc(Cl)cc2)CC1 | 260 | 24 | –
40 | CC(C)[C@H](N)c1cccc(F)c1N1CCN(C(=O)[C@@H]2CN(C(=O)C3CC3)C[C@H]2c2ccc(Cl)cc2)CC1 | 31 | – | –
41 | COCC(COC)N1C[C@@H](C(=O)N2CCN(c3ccc(C)cc3[C@@H](N)C(C)C)CC2)[C@H](c2ccc(Cl)cc2)C1 | 200 | 27 | –
42 | CC(C)[C@H](N)c1cc(C(F)(F)F)ccc1N1CCN(C(=O)[C@H](C)Cc2ccc(Cl)cc2Cl)CC1 | 26 | – | –
43 | Cc1ccc(N2CCN(C(=O)[C@@H]3CN(C(=O)CCCCc4ccccc4)C[C@H]3c3ccc(Cl)cc3)CC2)c([C@@H](N)C(C)C)c1 | 65 | 0 | –
44 | CCCC(=O)N1C[C@@H](C(=O)N2CCN(c3ccc(C)cc3[C@@H](N)C(C)C)CC2)[C@H](c2ccc(Cl)cc2)C1 | 68 | 14 | –
